Laboratory results taken from US8207172B2 (Bayer Intellectual Property GmbH, priority 2004, dated 2012).
Where a name gives a salt, the structure may show the parent alone.

Legend:
[1] = system: A431 cells (human epidermoid carcinoma); assay: In vitro tumor cell proliferation assay (Cell Titer-Glo luminescent cell viability), A431; assay type: cell-based; conditions: A-431, 72 h, 72 hours of drug exposure, ATP luminescence readout, read-out: IC50, anti-proliferative activity (inhibition of cell proliferation)
Outline: (§1)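 Proliferation inhibition was measured as ATP-dependent luciferase signal after cells in RPMI with 10% FBS received test compound for 72 h at 37° C. Final concentrations spanned […] to 64 pM in 0.1% DMSO; IC50 values were derived.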

[2] = system: BT474 (human breast carcinoma); assay: In vitro tumor cell proliferation assay (Cell Titer-Glo luminescent cell viability), BT474; assay type: cell-based; conditions: BT-474, 72 h, BT474 cells, 72 hours of drug exposure, ATP luminescence readout, read-out: IC50, anti-proliferative activity (inhibition of cell proliferation)
Outline: as §1

SMILES | IC50 [1] | IC50 [2]
OCC(O)CN1CCC(CCn2cc3c(n2)CCc2c-3sc3ncnc(Nc4ccc(OCc5cccc(F)c5)c(Cl)c4)c23)CC1 (centres unmarked) [Example 257, 3-(4-{2-[6-({3-chloro-4-[(3-fluorobenzyl)oxy]phenyl}amino)-4,5-dihydro-2H-pyrimido[5′,4′:4,5]thieno[2,3-e]indazol-2-yl]ethyl}piperidin-1-yl)propane-1,2-diol] | ≤ 5 µM | ≤ 1 µM
CS(=O)(=O)OCCn1ncc2c1CCc1c-2sc2ncnc(Nc3ccc(OCc4cccc(F)c4)c(Cl)c3)c12 [Example 258, 2-[6-({3-chloro-4-[(3-fluorobenzyl)oxy]phenyl}amino)-4,5-dihydro-3H-pyrimido[5′,4′:4,5]thieno[2,3-e]indazol-3-yl]ethyl methanesulfonate] | ≤ 5 µM | ≤ 1 µM
Fc1cccc(COc2ccc(Nc3ncnc4sc5c(c34)CCc3c-5cnn3CCNCCN3CCOCC3)cc2Cl)c1 [Example 259, N-{3-chloro-4-[(3-fluorobenzyl)oxy]phenyl}-3-{2-[(2-morpholin-4-ylethyl)amino]ethyl}-4,5-dihydro-3H-pyrimido[5′,4′:4,5]thieno[2,3-e]indazol-6-amine] | ≤ 50 µM | ≤ 5 µM
COCCN(CCOC)CCn1ncc2c1CCc1c-2sc2ncnc(Nc3ccc(OCc4cccc(F)c4)c(Cl)c3)c12 [Example 260, 3-{2-[bis(2-methoxyethyl)amino]ethyl}-N-{3-chloro-4-[(3-fluorobenzyl)oxy]phenyl}-4,5-dihydro-3H-pyrimido[5′,4′:4,5]thieno[2,3-e]indazol-6-amine] | ≤ 50 µM | ≤ 5 µM
COCCN(C)CCn1ncc2c1CCc1c-2sc2ncnc(Nc3ccc(OCc4cccc(F)c4)c(Cl)c3)c12 [Example 261, N-{3-chloro-4-[(3-fluorobenzyl)oxy]phenyl}-3-{2-[(2-methoxyethyl)(methyl)amino]ethyl}-4,5-dihydro-3H-pyrimido[5′,4′:4,5]thieno[2,3-e]indazol-6-amine] | ≤ 50 µM | ≤ 1 µM
OCCN(CCO)CCn1ncc2c1CCc1c-2sc2ncnc(Nc3ccc(OCc4cccc(F)c4)c(Cl)c3)c12 [Example 262, 2,2′-({2-[6-({3-chloro-4-[(3-fluorobenzyl)oxy]phenyl}amino)-4,5-dihydro-3H-pyrimido[5′,4′:4,5]thieno[2,3-e]indazol-3-yl]ethyl}imino)diethanol] | ≤ 50 µM | ≤ 1 µM
Fc1cccc(COc2ccc(Nc3ncnc4sc5c(c34)CCc3c-5cnn3CCN3CCN(Cc4ccncc4)CC3)cc2Cl)c1 [Example 263, N-{3-chloro-4-[(3-fluorobenzyl)oxy]phenyl}-3-{2-[4-(pyridin-4-ylmethyl)piperazin-1-yl]ethyl}-4,5-dihydro-3H-pyrimido[5′,4′:4,5]thieno[2,3-e]indazol-6-amine] | ≤ 50 µM | ≤ 1 µM
OCCNCCn1ncc2c1CCc1c-2sc2ncnc(Nc3ccc(OCc4cccc(F)c4)c(Cl)c3)c12 [Example 264, 2-({2-[6-({3-chloro-4-[(3-fluorobenzyl)oxy]phenyl}amino)-4,5-dihydro-3H-pyrimido[5′,4′:4,5]thieno[2,3-e]indazol-3-yl]ethyl}amino)ethanol] | ≤ 50 µM | ≤ 1 µM
COCCN1CCN(CCn2ncc3c2CCc2c-3sc3ncnc(Nc4ccc(OCc5cccc(F)c5)c(Cl)c4)c23)CC1 [Example 265, N-{3-chloro-4-[(3-fluorobenzyl)oxy]phenyl}-3-{2-[4-(2-methoxyethyl)piperazin-1-yl]ethyl}-4,5-dihydro-3H-pyrimido[5′,4′:4,5]thieno[2,3-e]indazol-6-amine trifluoroacetate] | ≤ 50 µM | ≤ 1 µM
Fc1cccc(COc2ccc(Nc3ncnc4sc5c(c34)CCc3c-5cnn3CCN3CCCCC3)cc2Cl)c1 [Example 266, trifluoroacetate] | ≤ 5 µM | ≤ 1 µM
CN(C)C1CCN(CCn2ncc3c2CCc2c-3sc3ncnc(Nc4ccc(OCc5cccc(F)c5)c(Cl)c4)c23)C1 (centres unmarked) [Example 267, N-{3-chloro-4-[(3-fluorobenzyl)oxy]phenyl}-3-{2-[3-(dimethylamino)pyrrolidin-1-yl]ethyl}-4,5-dihydro-3H-pyrimido[5′,4′:4,5]thieno[2,3-e]indazol-6-amine trifluoroacetate] | ≤ 5 µM | ≤ 1 µM
OCCCn1ncc2c1CCc1c-2sc2ncnc(Nc3ccc(OCc4cccc(F)c4)c(Cl)c3)c12 [Example 268, 3-[6-({3-chloro-4-[(3-fluorobenzyl)oxy]phenyl}amino)-4,5-dihydro-3H-pyrimido[5′,4′:4,5]thieno[2,3-e]indazol-3-yl]propan-1-ol] | ≤ 50 µM | ≤ 1 µM

Next, values leading:

IC50 [1] | IC50 [2] | SMILES
≤ 5 µM | ≤ 1 µM | CCN(CC)CC(=O)N1CCC(Cn2cc3c(n2)CCc2c-3sc3ncnc(Nc4ccc(OCc5cccc(F)c5)c(Cl)c4)c23)CC1 [Example 242, N-{3-chloro-4-[(3-fluorobenzyl)oxy]phenyl}-2-({1-[(diethylamino)acetyl]piperidin-4-yl}methyl)-4,5-dihydro-2H-pyrimido[5′,4′:4,5]thieno[2,3-e]indazol-6-amine trifluoroacetate]
≤ 5 µM | ≤ 1 µM | CCCN1CCC(Cn2cc3c(n2)CCc2c-3sc3ncnc(Nc4ccc(OCc5cccc(F)c5)c(Cl)c4)c23)CC1 [Example 243, N-{3-chloro-4-[(3-fluorobenzyl)oxy]phenyl}-2-[(1-propylpiperidin-4-yl)methyl]-4,5-dihydro-2H-pyrimido[5′,4′:4,5]thieno[2,3-e]indazol-6-amine]
≤ 5 µM | ≤ 1 µM | CCN1CCC(Cn2cc3c(n2)CCc2c-3sc3ncnc(Nc4ccc(OCc5cccc(F)c5)c(Cl)c4)c23)CC1 [Example 244, N-{3-chloro-4-[(3-fluorobenzyl)oxy]phenyl}-2-[(1-ethylpiperidin-4-yl)methyl]-4,5-dihydro-2H-pyrimido[5′,4′:4,5]thieno[2,3-e]indazol-6-amine]
≤ 5 µM | ≤ 1 µM | CC(C)N1CCC(Cn2cc3c(n2)CCc2c-3sc3ncnc(Nc4ccc(OCc5cccc(F)c5)c(Cl)c4)c23)CC1 [Example 245, N-{3-chloro-4-[(3-fluorobenzyl)oxy]phenyl}-2-[(1-isopropylpiperidin-4-yl)methyl]-4,5-dihydro-2H-pyrimido[5′,4′:4,5]thieno[2,3-e]indazol-6-amine]
≤ 5 µM | ≤ 1 µM | Fc1cccc(COc2ccc(Nc3ncnc4sc5c(c34)CCc3nn(CCC4CCN(Cc6ccco6)CC4)cc3-5)cc2Cl)c1 [Example 248, N-{3-chloro-4-[(3-fluorobenzyl)oxy]phenyl}-2-{2-[1-(2-furylmethyl)piperidin-4-yl]ethyl}-4,5-dihydro-2H-pyrimido[5′,4′:4,5]thieno[2,3-e]indazol-6-amine]
≤ 5 µM | ≤ 1 µM | OCC(CO)N1CCC(CCn2cc3c(n2)CCc2c-3sc3ncnc(Nc4ccc(OCc5cccc(F)c5)c(Cl)c4)c23)CC1 [Example 249, 2-(4-{2-[6-({3-chloro-4-[(3-fluorobenzyl)oxy]phenyl}amino)-4,5-dihydro-2H-pyrimido[5′,4′:4,5]thieno[2,3-e]indazol-2-yl]ethyl}piperidin-1-yl)propane-1,3-diol]
≤ 5 µM | ≤ 1 µM | CCC(CC)CN1CCC(CCn2cc3c(n2)CCc2c-3sc3ncnc(Nc4ccc(OCc5cccc(F)c5)c(Cl)c4)c23)CC1 [Example 250, N-{3-chloro-4-[(3-fluorobenzyl)oxy]phenyl}-2-{2-[1-(2-ethylbutyl)piperidin-4-yl]ethyl}-4,5-dihydro-2H-pyrimido[5′,4′:4,5]thieno[2,3-e]indazol-6-amine]
≤ 5 µM | ≤ 1 µM | CC(C)CN1CCC(CCn2cc3c(n2)CCc2c-3sc3ncnc(Nc4ccc(OCc5cccc(F)c5)c(Cl)c4)c23)CC1 [Example 251, N-{3-chloro-4-[(3-fluorobenzyl)oxy]phenyl}-2-[2-(1-isobutylpiperidin-4-yl)ethyl]-4,5-dihydro-2H-pyrimido[5′,4′:4,5]thieno[2,3-e]indazol-6-amine]
≤ 5 µM | ≤ 1 µM | CC(C)N1CCC(CCn2cc3c(n2)CCc2c-3sc3ncnc(Nc4ccc(OCc5cccc(F)c5)c(Cl)c4)c23)CC1 [Example 252, N-{3-chloro-4-[(3-fluorobenzyl)oxy]phenyl}-2-[2-(1-isopropylpiperidin-4-yl)ethyl]-4,5-dihydro-2H-pyrimido[5′,4′:4,5]thieno[2,3-e]indazol-6-amine]
≤ 5 µM | ≤ 1 µM | CCCN1CCC(CCn2cc3c(n2)CCc2c-3sc3ncnc(Nc4ccc(OCc5cccc(F)c5)c(Cl)c4)c23)CC1 [Example 253, N-{3-chloro-4-[(3-fluorobenzyl)oxy]phenyl}-2-[2-(1-propylpiperidin-4-yl)ethyl]-4,5-dihydro-2H-pyrimido[5′,4′:4,5]thieno[2,3-e]indazol-6-amine]
≤ 5 µM | ≤ 1 µM | CCN1CCC(CCn2cc3c(n2)CCc2c-3sc3ncnc(Nc4ccc(OCc5cccc(F)c5)c(Cl)c4)c23)CC1 [Example 254, N-{3-chloro-4-[(3-fluorobenzyl)oxy]phenyl}-2-[2-(1-ethylpiperidin-4-yl)ethyl]-4,5-dihydro-2H-pyrimido[5′,4′:4,5]thieno[2,3-e]indazol-6-amine]
≤ 5 µM | ≤ 1 µM | CN1CCC(CCn2cc3c(n2)CCc2c-3sc3ncnc(Nc4ccc(OCc5cccc(F)c5)c(Cl)c4)c23)CC1 [Example 255, N-{3-chloro-4-[(3-fluorobenzyl)oxy]phenyl}-2-[2-(1-methylpiperidin-4-yl)ethyl]-4,5-dihydro-2H-pyrimido[5′,4′:4,5]thieno[2,3-e]indazol-6-amine]
≤ 5 µM | ≤ 1 µM | CC(C)CCN1CCC(CCn2cc3c(n2)CCc2c-3sc3ncnc(Nc4ccc(OCc5cccc(F)c5)c(Cl)c4)c23)CC1 [Example 256, N-{3-chloro-4-[(3-fluorobenzyl)oxy]phenyl}-2-{2-[1-(3-methylbutyl)piperidin-4-yl]ethyl}-4,5-dihydro-2H-pyrimido[5′,4′:4,5]thieno[2,3-e]indazol-6-amine]
